Residues, ends and D or L forms follow the SMILES beside them.

Consider five compounds from ChEMBL document CHEMBL3390848, “Affinity selection and sequence-activity relationships of HIV-1 membrane fusion inhibitors directed at the drug-resistant variants” (Medchemcomm, 2010).

The subject of assay [1] is Human immunodeficiency virus 1. Description: Antiviral activity against HIV1 NL4-3 harboring gp41 D36G mutant infected in human HeLa cells expressing CD4-LTR-beta-gal assessed as inhibition of viral replication after 48 hrs by MAGI assay. The format is functional, organism-based.
The subject of assay [2] is Human immunodeficiency virus 1. Description: Binding affinity to HIV1 His-tagged N-terminal heptad repeat of envelope glycoprotein gp41 assessed as recovery of N54-drug complex after 2 hrs by LC-MS analysis. On the set-up: concentration or dose not given beside the values.
Assay [3] deals with Human immunodeficiency virus 1. Description: Thermal stability of HIV1 envelope glycoprotein gp41 His-tagged N-terminal heptad repeat N54-drug complex assessed as thermal unfolding transition state by measuring molar ellipticity at 4 to 90 degC by circular dichroic spectra analysis.

For `CC[C@H](C)[C@H](NC(=O)[C@H](CC(C)C)NC(=O)[C@H](CCC(=O)O)NC(=O)[C@H](CCC(=O)O)NC(=O)[C@@H](NC(=O)[C@H](CC(C)C)NC(=O)[C@H](CO)NC(=O)[C@@H](NC(=O)[C@H](Cc1ccc(O)cc1)NC(C)=O)[C@@H](C)O)[C@@H](C)CC)C(=O)N[C@@H](CCCCN)C(=O)N[C@@H](CCCCN)C(=O)N[C@@H](CO)C(=O)N[C@@H](CCC(=O)O)C(=O)N[C@@H](CCC(=O)O)C(=O)N[C@H](C(=O)N[C@@H](CCC(N)=O)C(=O)N[C@@H](CCCCN)C(=O)N[C@@H](CCCCN)C(=O)N[C@@H](CC(N)=O)C(=O)N[C@@H](CCC(=O)O)C(=O)N[C@@H](CCC(=O)O)C(=O)N[C@@H](CCC(=O)O)C(=O)N[C@@H](CC(C)C)C(=O)N[C@@H](CCCCN)C(=O)N[C@@H](CCCCN)C(=O)N[C@@H](CC(C)C)C(=O)N[C@@H](CCC(=O)O)C(=O)N[C@@H](CCC(=O)O)C(=O)N[C@@H](Cc1c[nH]c2ccccc12)C(=O)N[C@@H](C)C(=O)N[C@@H](CCCCN)C(=O)N[C@@H](CCCCN)C(=O)N[C@@H](Cc1c[nH]c2ccccc12)C(=O)N[C@@H](CC(N)=O)C(=O)N[C@@H](Cc1c[nH]c2ccccc12)C(=O)N[C@@H](Cc1ccccc1)C(N)=O)[C@@H](C)O` (Ac-YTSLIEELIKKSEETQKKNEEELKKLEEWAKKWNWF-NH2), the EC50 (commonly the concentration needed to bring the measured effect to its halfway point) in assay [1] amounted to 2.1 nM. Further, in assay [2], the Activity stood at 6.9%. Besides, the Tm (commonly the temperature at the midpoint of the melting transition) in assay [3] came to 71.6 °C.
The like results for `CC[C@H](C)[C@H](NC(=O)[C@H](CC(C)C)NC(=O)[C@H](CCC(=O)O)NC(=O)[C@H](CCC(=O)O)NC(=O)[C@@H](NC(=O)[C@H](CC(C)C)NC(=O)[C@H](CO)NC(=O)[C@@H](NC(=O)[C@H](Cc1ccc(O)cc1)NC(C)=O)[C@@H](C)O)[C@@H](C)CC)C(=O)N[C@@H](CCCCN)C(=O)N[C@@H](CCCCN)C(=O)N[C@@H](CO)C(=O)N[C@@H](CCC(=O)O)C(=O)N[C@@H](CCC(=O)O)C(=O)N[C@@H](Cc1cnc[nH]1)C(=O)N[C@@H](CCC(N)=O)C(=O)N[C@@H](CCCCN)C(=O)N[C@@H](CCCCN)C(=O)N[C@@H](CC(N)=O)C(=O)N[C@@H](CCC(=O)O)C(=O)N[C@@H](CCC(=O)O)C(=O)N[C@@H](CCC(=O)O)C(=O)N[C@@H](CC(C)C)C(=O)N[C@@H](CCCCN)C(=O)N[C@@H](CCCCN)C(=O)N[C@@H](CC(C)C)C(=O)N[C@@H](CCC(=O)O)C(=O)N[C@@H](CCC(=O)O)C(=O)N[C@@H](Cc1c[nH]c2ccccc12)C(=O)N[C@@H](C)C(=O)N[C@@H](CCCCN)C(=O)N[C@@H](CCCCN)C(=O)N[C@@H](Cc1c[nH]c2ccccc12)C(=O)N[C@@H](CC(N)=O)C(=O)N[C@@H](Cc1c[nH]c2ccccc12)C(=O)N[C@@H](Cc1ccccc1)C(N)=O` (Ac-YTSLIEELIKKSEEHQKKNEEELKKLEEWAKKWNWF-NH2) were, in that order, 3 nM, 3.7% and 68.4 °C.
The like results for `CC[C@H](C)[C@H](NC(=O)[C@H](CC(C)C)NC(=O)[C@H](CCC(=O)O)NC(=O)[C@H](CCC(=O)O)NC(=O)[C@@H](NC(=O)[C@H](CC(C)C)NC(=O)[C@H](CO)NC(=O)[C@@H](NC(=O)[C@H](Cc1ccc(O)cc1)NC(C)=O)[C@@H](C)O)[C@@H](C)CC)C(=O)N[C@@H](CCCCN)C(=O)N[C@@H](CCCCN)C(=O)NCC(=O)N[C@@H](CCC(=O)O)C(=O)N[C@@H](CCC(=O)O)C(=O)N[C@@H](CCC(N)=O)C(=O)N[C@@H](CCC(N)=O)C(=O)N[C@@H](CCCCN)C(=O)N[C@@H](CCCCN)C(=O)N[C@@H](CC(N)=O)C(=O)N[C@@H](CCC(=O)O)C(=O)N[C@@H](CCC(=O)O)C(=O)N[C@@H](CCC(=O)O)C(=O)N[C@@H](CC(C)C)C(=O)N[C@@H](CCCCN)C(=O)N[C@@H](CCCCN)C(=O)N[C@@H](CC(C)C)C(=O)N[C@@H](CCC(=O)O)C(=O)N[C@@H](CCC(=O)O)C(=O)N[C@@H](Cc1c[nH]c2ccccc12)C(=O)N[C@@H](C)C(=O)N[C@@H](CCCCN)C(=O)N[C@@H](CCCCN)C(=O)N[C@@H](Cc1c[nH]c2ccccc12)C(=O)N[C@@H](CC(N)=O)C(=O)N[C@@H](Cc1c[nH]c2ccccc12)C(=O)N[C@@H](Cc1ccccc1)C(N)=O` (Ac-YTSLIEELIKKGEEQQKKNEEELKKLEEWAKKWNWF-NH2) were, in that order, 0.4 nM, 9.6% and 76.7 °C.
The like results for `CC[C@H](C)[C@H](NC(=O)[C@H](CC(C)C)NC(=O)[C@H](CCC(=O)O)NC(=O)[C@H](CCC(=O)O)NC(=O)[C@@H](NC(=O)[C@H](CC(C)C)NC(=O)[C@H](CO)NC(=O)[C@@H](NC(=O)[C@H](Cc1ccc(O)cc1)NC(C)=O)[C@@H](C)O)[C@@H](C)CC)C(=O)N[C@@H](CCCCN)C(=O)N[C@@H](CCCCN)C(=O)N[C@H](C(=O)N[C@@H](CCC(=O)O)C(=O)N[C@@H](CCC(=O)O)C(=O)N[C@@H](CCC(N)=O)C(=O)N[C@@H](CCC(N)=O)C(=O)N[C@@H](CCCCN)C(=O)N[C@@H](CCCCN)C(=O)N[C@@H](CC(N)=O)C(=O)N[C@@H](CCC(=O)O)C(=O)N[C@@H](CCC(=O)O)C(=O)N[C@@H](CCC(=O)O)C(=O)N[C@@H](CC(C)C)C(=O)N[C@@H](CCCCN)C(=O)N[C@@H](CCCCN)C(=O)N[C@@H](CC(C)C)C(=O)N[C@@H](CCC(=O)O)C(=O)N[C@@H](CCC(=O)O)C(=O)N[C@@H](Cc1c[nH]c2ccccc12)C(=O)N[C@@H](C)C(=O)N[C@@H](CCCCN)C(=O)N[C@@H](CCCCN)C(=O)N[C@@H](Cc1c[nH]c2ccccc12)C(=O)N[C@@H](CC(N)=O)C(=O)N[C@@H](Cc1c[nH]c2ccccc12)C(=O)N[C@@H](Cc1ccccc1)C(N)=O)[C@@H](C)CC` (Ac-YTSLIEELIKKIEEQQKKNEEELKKLEEWAKKWNWF-NH2) were, in that order, 0.4 nM, 10.4% and 79.7 °C.
For the compound `CC[C@H](C)[C@H](NC(=O)[C@H](CC(C)C)NC(=O)[C@H](CCC(=O)O)NC(=O)[C@H](CCC(=O)O)NC(=O)[C@@H](NC(=O)[C@H](CC(C)C)NC(=O)[C@H](CO)NC(=O)[C@@H](NC(=O)[C@H](Cc1ccc(O)cc1)NC(C)=O)[C@@H](C)O)[C@@H](C)CC)C(=O)N[C@@H](CCCCN)C(=O)N[C@@H](CCCCN)C(=O)N[C@@H](CO)C(=O)N[C@@H](CCC(=O)O)C(=O)N[C@@H](CCC(=O)O)C(=O)N[C@@H](Cc1ccc(O)cc1)C(=O)N[C@@H](CCC(N)=O)C(=O)N[C@@H](CCCCN)C(=O)N[C@@H](CCCCN)C(=O)N[C@@H](CC(N)=O)C(=O)N[C@@H](CCC(=O)O)C(=O)N[C@@H](CCC(=O)O)C(=O)N[C@@H](CCC(=O)O)C(=O)N[C@@H](CC(C)C)C(=O)N[C@@H](CCCCN)C(=O)N[C@@H](CCCCN)C(=O)N[C@@H](CC(C)C)C(=O)N[C@@H](CCC(=O)O)C(=O)N[C@@H](CCC(=O)O)C(=O)N[C@@H](Cc1c[nH]c2ccccc12)C(=O)N[C@@H](C)C(=O)N[C@@H](CCCCN)C(=O)N[C@@H](CCCCN)C(=O)N[C@@H](Cc1c[nH]c2ccccc12)C(=O)N[C@@H](CC(N)=O)C(=O)N[C@@H](Cc1c[nH]c2ccccc12)C(=O)N[C@@H](Cc1ccccc1)C(N)=O` (Ac-YTSLIEELIKKSEEYQKKNEEELKKLEEWAKKWNWF-NH2), the EC50 in assay [1] worked out at 2.3 nM. Also, the Activity in assay [2] is 4.9%. The Tm in assay [3] worked out at 67.7 °C.
